{"source": "ChEMBL document CHEMBL1146781", "about": "“Structural differences between paroxetine and femoxetine responsible for differential inhibition of Staphylococcus aureus efflux pumps” (2004)", "key": {"Staphylococcus aureus [1]": {"test_system": "Staphylococcus aureus", "assay": "Concentration required to reduce Minimum inhibitory concentration (MIC) of Norfloxacin against Staphylococcus aureus 1199B by 8 folds", "type": "functional, organism-based"}, "Staphylococcus aureus [2]": {"test_system": "Staphylococcus aureus", "assay": "Minimum inhibitory concentration (MIC) against Staphylococcus aureus K2068; Range 12.5 1.6 ug/mL", "type": "functional"}, "Staphylococcus aureus [3]": {"test_system": "Staphylococcus aureus", "assay": "Minimum inhibitory concentration (MIC) against Staphylococcus aureus 1199B; Range 50 - 6.3 ug/mL", "type": "functional"}, "Staphylococcus aureus [4]": {"test_system": "Staphylococcus aureus", "assay": "Concentration required to reduce Minimum inhibitory concentration (MIC) of Norfloxacin against Staphylococcus aureus 1199B by 4 folds", "type": "functional, organism-based"}, "Staphylococcus aureus [5]": {"test_system": "Staphylococcus aureus", "assay": "Percent inhibition of EtBr efflux against Staphylococcus aureus 1199B at 50 concentration", "type": "functional"}}}
{"smiles": "Fc1ccc([C@H]2CCNC[C@@H]2COc2ccc3c(c2)OCO3)cc1", "values": [{"measurement": "Concentration", "setting": "Staphylococcus aureus [1]", "value": 20, "unit": "µg/mL"}]}
{"smiles": "CCn1cc(C(=O)O)c(=O)c2cc(F)c(N3CCNCC3)cc21", "note": "[NORFLOXACIN]", "values": [{"measurement": "MIC", "setting": "Staphylococcus aureus [2]", "value": 12.5, "unit": "µg/mL"}, {"measurement": "MIC", "setting": "Staphylococcus aureus [3]", "value": 50, "unit": "µg/mL"}]}
{"smiles": "COC(=O)[C@H]1[C@H]2C[C@@H]3c4[nH]c5cc(OC)ccc5c4CCN3C[C@H]2C[C@@H](OC(=O)c2cc(OC)c(OC)c(OC)c2)[C@@H]1OC", "values": [{"measurement": "Concentration", "setting": "Staphylococcus aureus [4]", "value": 20, "unit": "µg/mL"}]}
{"smiles": "Fc1ccc([C@@H]2CCNC[C@H]2COc2ccc3c(c2)OCO3)cc1", "values": [{"measurement": "Concentration", "setting": "Staphylococcus aureus [1]", "value": 25, "unit": "µg/mL"}]}
{"smiles": "CN1CC[C@@H](c2ccc(F)cc2)[C@H](COc2ccc3c(c2)OCO3)C1", "values": [{"measurement": "Inhibition", "setting": "Staphylococcus aureus [5]", "value": "~50", "unit": "%"}]}
